Experimental data published in patent US6544727B1, “Methods and devices for the removal of psoralens from blood products” (Cerus Corporation, priority 1995, dated 2003).
“Also recorded” adds a separate entry of the source.

How the values were obtained:
platelets = assay: Platelet count, Sysmex cell counter; assay type: cell-based, human; settings: 100 μM compound, 5 Joules/cm^2, Day 5; FIGS. 21A-24A
Method: Samples were diluted 1:3 in blood bank saline.

[1] = test system: H9 cells chronically infected with HIVIIIB; assay: Inactivation of cell-associated HIV in platelet concentrate, HIV microplaque assay; assay type: cell-based; settings: for log inactivation of HIV, dark control: 150 μM psoralen, no UVA; for logs of HIV inactivated: 150 μM, 3 Joules/cm^2, cell-associated HIV in platelet concentrate
Method: H9 cells chronically infected with HIVIIIB were used. (H9/HTLV-III-B NIH 1983 Cat.#400). Cultures of these cells were maintained in high glucose Dulbecco Modified Eagle Medium supplemented with 2 mM L-glutamine, 200 u/mL penicillin, 200 μg/ml streptomycin, and 9% fetal bovine serum (Intergen Company, Purchase, N.Y.) For maintenance, the culture was split once a week, to a density of 3×10^5 to 4×10^5 cells/ml and about four days after splitting, 3.3% sodium bicarbonate was added as needed. For the inactivation procedure, the cells were used three days after they were split. They were pelleted from their culture medium at 400 g×10 minutes, the supernatant was discarded, and the cells were resuspended in one to five day old human platelet concentrate (PC) (pH 7.5-6.5), to a concentration of 2×10^6 cells/ml. Aliquots of the PC-infected cell suspension were made for psoralen free dark controls, for psoralen free UVA only controls, for psoralen dark controls, and for the psoralen plus UVA experimental sample. Concentrated filter-sterilized stock solutions of each psoralen in water were diluted into the appropriate aliquots to yield a final concentration of 150 μM. […] After an equilibration period of thirty minutes at room temperature, 0.5 ml of each of the dark controls was placed in a cryovial and stored in the dark at −80° C. For UVA illumination, 8 ml of the psoralen free aliquot and 8 ml of each psoralen containing aliquot were introduced into a modified Fl 20 Teflon™ bag (modified to be 92 cm^2 total surface area, The West Co., Phoenixvill, Pa.) via a plastic disposable 10 ml syringe attached to one of the polypropylne ports on the bag. This gave an average path length of 0.17 cm. The bags were then illuminated for a total exposure of 3 Joules/cm^2 in the device described in Example 1, above, attached to a circulating refrigerating water bath set at 4° C., which maintains the temperature in the bag at approximately 22-25° C. During exposure, the device was shaken on a platelet shaker (Helmer Labs, Noblesville, Ind.). After exposure, the contents of the bags were withdrawn by a fresh syringe through the remaining unused port on the bag, and placed in cryovials for storage in the dark at −80° C. until analysis.
The stored samples were thawed at 37° C., then titrated in an HIV microplaque assay, as described in Hanson, C. […] Clot removal from each sample was performed before plating.

DNA = settings: Isaacs et al., NCI Monograph 66:21 (1984); cited from earlier work
[2] = test system: Salmonella tester strain TA102; assay: Ames test, strain TA102
Method: In this example the compounds of the present invention are tested for their dark mutagenicity using an Ames assay. The procedures used for the Salmonella mutagenicity test as described in detail by Maron and Ames were followed exactly. Maron, D. M. and B. N. Ames, Mutation Research 113: 173 ( 1983). A brief description for each procedure is given here. The tester strains TA97a, TA98, TA100, TA102, TA1537 and TA1538 were obtained from Dr. Ames. TA97a, TA98, TA1537 and TA1538 are frameshift tester strains. TA100 and TA102 are base-substitution tester strains. Upon receipt each strain was cultured under a variety of conditions to confirm the genotypes specific to the strains.
The first tests done with the strains were to determine the range of spontaneous reversion for each of the strains. With each mutagenicity experiment the spontaneous reversion of the tester strains to histidine independence was measured and expressed as the number of spontaneous revertants per plate. This served as the background controls.
For all experiments, the pre-incubation procedure was used. In this procedure one vial of each tester strain was thawed and 20 μL of this culture was added to 6 mL of Oxoid Nutrient Broth #2. This solution was allowed to shake for 10 hours at 37° C. In the pre-incubation procedure, 0.1 mL of this overnight culture was added to each of the required number of sterile test tubes. To half of the tubes 0.5 mL of a 10% S-9 solution containing Aroclor 1254 induced rat liver extract (Molecular Toxicology Inc., Annapolis, Md.), and MgCl2, KCl, glucose-6-phosphate, NADP, and sodium phosphate buffer (Sigma, St. Louis, Mo.) were added. To the other half of the tubes 0.5 mL of 0.2M sodium phospate buffer, pH 7.4, was used in place of the S-9 mixture (the—S9samples). Finally 0.1 mL of the test solution containing either 0, 0.1, 0.5, 1, 5, 10, 50, 100, 250, or 500 μg/mL of the test compound was added. The 0.7 mL mixture was vortexed and then pre-incubated while shaking for 20 minutes at 37° C. After shaking, 2 mL of molten top agar supplemented with histidine and biotin were added to the 0.7 mL mixture and immediately poured onto a minimal glucose agar plate (volume of base agar was 20 mL). The top agar was allowed 30 minutes to solidify and then the plates were inverted and incubated for 44 hours at 37° C. After incubation the number of revertant colonies on each plate were counted. […] (“n” represents the number of replicates performed for each data point.)

R17 bacteriophage = R17 bacteriophage inactivation at constant concentration, varying doses of UV light; assay type: cell-based; settings: 1.0-3.0 J/cm^2, FIGS. 11-17
Method: Compounds of the present invention were also tested at a constant concentration for varying doses of UV light. Three sets of 1.5 mL tubes were prepared containing 0.6mL aliquots of R17 in DMEM (prepared as described above). The compound tested was added at the desired concentration and the samples were vortexed. The samples were then irradiated at intervals of 1.0 J/cm^2, until 3.0 J/cm^2 was reached. Between each 1.0 J/cm^2 interval, 100 μL was removed from each sample and placed in the first corresponding dilution tube, then five sequential dilutions were performed for each compound tested, at all 3 irradiation doses, as described above in this example.
Then 50 μL of Hfr 3000 bacteria was added to each tube, 3 mL of top agar was added and the tube contents were vortexed The contents of each tube was poured into its own LB plate and the plates were incubated overnight at 37° C. Plaques were counted by visual inspection the following morning.

[3] = Residual S-59 and photoproducts D and E in fresh frozen plasma after batch RD (Tables R, T); assay type: physicochemical, human
Method: Samples taken from each bag after a 1-hour incubation were analyzed for S-59 and photoproduct removal. The results (n=7) for residual S-59 and photoproducts D and E (two of primary photoproducts formed during illumination, as described above) are presented in Table R (ND=not detectable; 1 hour incubation).
The experiments were performed in the manner described above.

Structure (SMILES): Cc1cc(=O)oc2c(C)c3oc(COCCN)c(C)c3cc12 [Compound 18, 5′-(4-amino-2-oxa)butyl-4,4′,8-trimethylpsoralen]
- platelet count, treated against controls (in words) (platelets): higher platelet count than samples treated with light alone
- log inactivation of HIV, dark control [1]: 0 logs
- logs of HIV inactivated [1]: > 7.2 logs

Structure (SMILES): Cc1oc2c(C)c3oc(=O)cc(C)c3cc2c1CN [AMT, 4′-Aminomethyl-4,5′,8-trimethylpsoralen, reference compound]
- DNA base pairs per AMT adduct (up to 1 adduct per) (DNA): 3.5 DNA base pairs
- revertant colonies per plate ([2]; TA102 + S9, 0.1 μg/plate): −20
- revertant colonies per plate ([2]; TA102 + S9, 0.5 μg/plate): 5
- revertant colonies per plate ([2]; TA102 + S9, 1 μg/plate): −17
- revertant colonies per plate ([2]; TA102 + S9, 5 μg/plate): 51
- revertant colonies per plate ([2]; TA102 − S9, 0.1 μg/plate): 27
- revertant colonies per plate ([2]; TA102 − S9, 0.5 μg/plate): 47
- revertant colonies per plate ([2]; TA102 − S9, 1 μg/plate): 88
- revertant colonies per plate ([2]; TA102 − S9, 5 μg/plate): 266

Structure (SMILES): Cc1oc2c(C)c3oc(=O)cc(C)c3cc2c1CNCCCCN [Compound 6, 4′-(6-amino-2-aza)hexyl-4,5′,8-trimethylpsoralen]
- platelet count, treated against controls (in words) (platelets): higher platelet count than samples treated with light alone; also recorded: counts equivalent to the 5 day control
- R17 inactivation efficiency compared with AMT (in words) (R17 bacteriophage): more efficient at inactivating R17 than was AMT

Structure (SMILES): Cc1oc2c(C)c3oc(=O)cc(C)c3cc2c1COCCN [Compound 2, 4′-(4-amino-2-oxa)butyl-4,5′,8-trimethylpsoralen]
- log inactivation of HIV, dark control [1]: 0 logs
- logs of HIV inactivated [1]: > 6.7 logs
- residual S-59 in fresh frozen plasma ([3]; RD with […] g Dowex XUS 43493, approximately one hour incubation): ≤ 0.75 µM
- Concentration in plasma, Pre-Removal ([3]; Table R, 150 μM S-59 in plasma after 3 J/cm^2 UVA, before RD): 83.30 µM
- Concentration in plasma, Pre-removal (±SD) ([3]; Table T, 150 μM S-59 in plasma after 3 J/cm^2 UVA, before RD): 88.7 ± 4.1 µM
